Data published in PubChem BioAssay AID2060491 (Molecular Pharmacology Branch, DTP, NCI, 2025).
“And” between values parts separate entries of the source, which are not always exact repeats. Equal values may be shown once.

Test system: 857933-349-R-J2-PDC complex spheroids, viability
Test: Anticancer human tumor 857933-349-R-J2-PDC patient-derived colon adenocarcinoma cell line growth inhibition [GQUAD]
Conditions: for viability, T/C: stronger effect = lower value
Source text: DNA G-quadruplex Stabilizer Agents in Combinations in Complex Spheroids
A high-throughput screen of multi-cell type tumor spheroids was designed to identify active combinations of DNA G-quadruplex stabilizer agents and targeted small molecules. Complex spheroids include a stromal component modeled by human endothelial cells (HUVEC) and fibroblasts modeled by human mesenchymal stem cells (MSCs). The concentration ranges selected for each drug and investigational agent were based upon clinically achievable concentrations if the clinical Cmax of the agent was known.
Compounds. The drugs and investigational agents: pidnarulex (CX-5461; NSC782164), APTO-253 (NSC789042), BRACO-19 (NSC847499), peposertib (NSC802822), ceralasertib (NSC780249), elimusertib (NSC800525), camonsertib (NSC841442), AZD-1390 (NSC803789), olaparib (NSC753686), talazoparib (NSC767125), ART-558 (NSC835418), sotorasib (NSC818433), MRTX-1133 (NSC836407), SN-38 (NSC673596), topotecan (NSC609699), etoposide (NSC141540), doxorubicin (NSC123127), gemcitabine (NSC613327), 5-fluorouracil (NSC19893), paclitaxel (NSC125973), vemurafenib (NSC761431), panobinostat (NSC761190), R-306465 (JNJ-16241199; NSC773264), adavosertib (NSC754352), TP-3654 (NSC805149), carboplatin (NSC241240), KSQ-4279 (NSC840948), and staurosporine (NSC755774) were obtained from the National Cancer Institute (NCI) Developmental Therapeutics Program Chemical Repository (34). The FDA-approved anticancer drug set is available from the NCI Developmental Therapeutics Program. […] The stock solutions were prepared in dimethyl sulfoxide (DMSO, Sigma-Aldrich, St. Louis, MO, cat. D2650) at 800-fold the tested concentration and stored at -70 degrees C prior to their use. All drugs and investigational agents were tested over a range starting from a high concentration at or near the clinical Cmax and decreasing in half-log increments. If the clinical Cmax for an agent had not been determined, the highest concentration tested was 10 microM.
2.3 Cell Culture. All cells were maintained in an incubator at 37 degrees C and 5% CO2 with 95% humidity. The PDC lines were cultured according to standard operating procedures established by the NCI PDMR. All PDCs were thawed and cultured in Matrigel-coated flasks prepared with a working solution of 1X Ham's F-12 nutrient mix, without supplementation (Invitrogen, cat. 11765054), 100 U/mL penicillin-streptomycin (Invitrogen, cat. 15140122), and 2.5% Matrigel (Corning Inc., cat. 354248) for the first three passages. The 857933-349-R-J2-PDC line was cultured in 6C/Colon 1B media, which includes advanced DMEM/F-12 (Thermo Fisher Scientific, cat. 12634028), 10 mM HEPES (Thermo Fisher Scientific, cat. 15630080), 1X GlutaMAX supplement (Thermo Fisher Scientific, cat. 35050061), 0.1 mg/mL primocin (InvivoGen, cat. ant-pm-2), 10% defined fetal bovine serum, heat inactivated (HyClone Laboratories Inc., cat. SH30070.03HI), 50% L-WRN conditioned media (ATCC, cat. CRL-3276), 1.25 mM N-Acetyl-L-cysteine (Sigma-Aldrich, cat. A9165), 10 mM nicotinamide (Sigma-Aldrich, cat. N0636), 1X B-27 supplement (Thermo Fisher Scientific, cat. 17504044), 1X N-2 supplement (Thermo Fisher Scientific, cat. 17502048), 10 microM Y-27632 dihydrochloride (Tocris Bioscience, cat. 1254), and 50 ng/mL human EGF recombinant protein (Thermo Fisher Scientific, cat. PHG0311). The 485176-168-R4-J1-PDC line was cultured in Panc media, which includes all 6C/Colon 1B media components plus 100 ng/mL human FGF-10 (Thermo Fisher Scientific, cat. 100-26), 500 nM SB-431542 (Selleckchem, cat. S1067), and gastrin (Tocris, cat. 3006).
[…]
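Further: spheroids exposed to compounds for one week before readout.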
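Wherever viability, T/C is given: percent viability relative to vehicle DMSO wells taken as 100%.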

COc1ncnc(C2CC2)c1-c1ncc2cnn(Cc3ccc(-c4nc(C(F)(F)F)cn4C(C)C)cc3)c2n1
viability, T/C (compound 0.0316 µM): 101% and 105% and 104%
viability, T/C (compound 0.1 µM): 92.3% and 102% and 96%
viability, T/C (compound 0.316 µM): 101% and 105% and 104%
viability, T/C (compound 1 µM): 93.7% and 103% and 102%
viability, T/C (compound 3.16 µM): 104% and 99.2% and 97.6%
viability, T/C (compound 10 µM): 102% and 105% and 103%
IC50 (curve of compound): > 10 µM

Nc1ccn(C2OC(CO)C(O)C2(F)F)c(=O)n1 (stereo not drawn)
viability, T/C (compound 0.0316 µM): 75.3% and 98.5% and 97.2%
viability, T/C (compound 0.1 µM): 43.2% and 80.9% and 48.4%
viability, T/C (compound 0.316 µM): 45.5% and 58.7% and 54.6%
viability, T/C (compound 1 µM): 12.3% and 22.7% and 10.3%
viability, T/C (compound 3.16 µM): 8.31% and 14.9% and 6.52%
viability, T/C (compound 10 µM): 6.59% and 14.8% and 5.26%
IC50 (curve of compound): 0.105 µM and 0.386 µM and 0.161 µM

Cc1cccc(N(C)C(=O)C2C(O)CCN2c2nc(C)cc(C(F)(F)F)c2C#N)c1 (stereo not drawn) + Cc1[nH]c2ccc(F)cc2c1-c1nc2c3cccnc3c3ncccc3c2[nH]1
IC50 (curve of first compound, second compound 0.0316 µM): > 10 µM
IC50 (curve of first compound, second compound 0.1 µM): > 10 µM
IC50 (curve of first compound, second compound 0.316 µM): > 10 µM
IC50 (curve of first compound, second compound 1 µM): > 10 µM
IC50 (curve of first compound, second compound 3.16 µM): > 10 µM
IC50 (curve of first compound, second compound 10 µM): > 10 µM
viability, T/C (second compound 0.0316 µM, first compound 0.0316 µM): 101%
viability, T/C (second compound 0.0316 µM, first compound 0.1 µM): 99.1%
viability, T/C (second compound 0.0316 µM, first compound 0.316 µM): 91.6%
viability, T/C (second compound 0.0316 µM, first compound 1 µM): 88.2%
viability, T/C (second compound 0.0316 µM, first compound 3.16 µM): 98.3%
viability, T/C (second compound 0.0316 µM, first compound 10 µM): 92%
viability, T/C (second compound 0.1 µM, first compound 0.0316 µM): 95.2%
viability, T/C (second compound 0.1 µM, first compound 0.1 µM): 98.4%
viability, T/C (second compound 0.1 µM, first compound 0.316 µM): 98.8%
viability, T/C (second compound 0.1 µM, first compound 1 µM): 97.9%
viability, T/C (second compound 0.1 µM, first compound 3.16 µM): 102%
viability, T/C (second compound 0.1 µM, first compound 10 µM): 96.7%
viability, T/C (second compound 0.316 µM, first compound 0.0316 µM): 101%
viability, T/C (second compound 0.316 µM, first compound 0.1 µM): 104%
viability, T/C (second compound 0.316 µM, first compound 0.316 µM): 106%
viability, T/C (second compound 0.316 µM, first compound 1 µM): 102%
viability, T/C (second compound 0.316 µM, first compound 3.16 µM): 101%
viability, T/C (second compound 0.316 µM, first compound 10 µM): 110%
viability, T/C (second compound 1 µM, first compound 0.0316 µM): 94.9%
viability, T/C (second compound 1 µM, first compound 0.1 µM): 101%
viability, T/C (second compound 1 µM, first compound 0.316 µM): 102%
viability, T/C (second compound 1 µM, first compound 1 µM): 103%
viability, T/C (second compound 1 µM, first compound 3.16 µM): 110%
viability, T/C (second compound 1 µM, first compound 10 µM): 94.7%
viability, T/C (second compound 3.16 µM, first compound 0.0316 µM): 94.6%
viability, T/C (second compound 3.16 µM, first compound 0.1 µM): 97.4%
viability, T/C (second compound 3.16 µM, first compound 0.316 µM): 111%
viability, T/C (second compound 3.16 µM, first compound 1 µM): 100%
viability, T/C (second compound 3.16 µM, first compound 3.16 µM): 98.5%
viability, T/C (second compound 3.16 µM, first compound 10 µM): 99.7%
viability, T/C (second compound 10 µM, first compound 0.0316 µM): 96.1%
viability, T/C (second compound 10 µM, first compound 0.1 µM): 101%
viability, T/C (second compound 10 µM, first compound 0.316 µM): 93%
viability, T/C (second compound 10 µM, first compound 1 µM): 95%
viability, T/C (second compound 10 µM, first compound 3.16 µM): 97.5%
viability, T/C (second compound 10 µM, first compound 10 µM): 88.3%

CC1COCCN1c1cc(C2(S(C)(=N)=O)CC2)nc(-c2ccnc3[nH]ccc23)n1 (stereo not drawn)
viability, T/C (compound 0.0316 µM): 107% and 106% and 99%
viability, T/C (compound 0.1 µM): 96.8% and 99.1% and 94.2%
viability, T/C (compound 0.316 µM): 96.2% and 105% and 84.3%
viability, T/C (compound 1 µM): 68.3% and 92.9% and 61.6%
viability, T/C (compound 3.16 µM): 57.1% and 82.2% and 48.8%
viability, T/C (compound 10 µM): 47% and 65.2% and 39.2%
IC50 (curve of compound): 7.38 µM and > 10 µM and 2.57 µM
